Here are results for seven substances from patent publication US10202427B2, “Esculentin-2CHa peptide and analogues thereof” (UNIVERSITY OF ULSTER, priority 2014, dated 2019).

In experiment [1] the test system is BRIN-BD11 cells. Put plainly: Insulin release from BRIN-BD11 cells (radioimmunoassay). Type of experiment: cell-based. As to the method:
BRIN-BD11 cells (Public Health England; Cat. No: 10033003) were grown at 37° C. in an atmosphere of 5% CO2 and 95% air in RPMI-1640 tissue culture medium containing 10% (v/v) fetal calf serum, antibiotics (100 U/ml penicillin, 0.1 mg/ml streptomycin) and 11.1 mM glucose as previously described (Marenah et al, 2004; Conlon et al, 2008; and Mechkarska et al, 2011). The cells were pre-incubated for 40 min at 37° C. in 1.0 ml Krebs Ringer bicarbonate (KRB) buffer, pH 7.4 supplemented with either 5.6 mM or 16.7 mM glucose and 0.1% (w/v) bovine serum albumin (Conlon et al, 2008). Incubations with synthetic peptides (10^−12-3×10^−6 M; n =8) were performed for 20 min at 37° C. using the same buffer. After incubation, aliquots of cell supernatant were removed for insulin radioimmunoassay as described by Flatt and Bailey (1981).

Experiment [2] has as its system BRIN-BD11 cells. The experiment can be described thus: Insulin release from BRIN-BD11 cells with known modulators of insulin secretion / extracellular calcium. Type of experiment: cell-based. As to conditions: 16.7 mM glucose; peptide 10^-6 M. The method, then:
Cellular mechanism of actions of synthetic peptides was investigated by measuring insulin-release from BRIN-DB11 cells in the presence or absence of synthetic peptides (10^−6M) and known modulators of insulin-release. These additional incubations were carried in (a) medium supplemented with 16.7 mM glucose, (b) calcium-free medium supplemented with 5.6 mM glucose, (c) medium containing 5.6 mM glucose and diazoxide ([…]), (d) medium containing 5.6 mM glucose and verapamil ([…]), and (e) medium supplemented with 16.7 mM glucose and 30 mM KCl. Cells were incubated for 20 min at 37° C. and insulin concentrations in cell supernatants were measured by radioimmunoassay (Flatt and Bailey (1981)).
Without being bound by theory, by incubating BRIN-BD11 cells with the known modulators of insulin release in the absence or presence of the peptides and peptide analogues of the present invention (10^-6M), it was shown that the stimulatory effect of the peptides was inhibited in the presence of verapamil (50 μM) and chelation of extracellular calcium but completely abolished in the presence of diazoxide (200 μM). Moreover, insulin secretion increased with the co-incubation of the peptide with IBMX (200 μM), and tolbutamide (200 μM).

For experiment [3], the system named is BRIN-BD11 cells. Put plainly: Membrane potential in BRIN-BD11 cells (fluorimetric). As to conditions: peptide 1 μM, 10 min, vs 5.6 mM glucose alone. Type of experiment: cell-based. The method, then: (§1) Changes in membrane potential and [Ca^2+]i were determined fluorimetrically using monolayers of BRIN-BD11 cells as previously described by Miguel et al (2004) and Abdel-Wahab et al (2007) using a membrane potential assay kit or a Ca^2+ assay kit (Molecular Devices, Sunnyvale, Calif., USA) according to the manufacturer's recommended protocols. Data were acquired using a FlexStation scanning fluorimeter with integrated fluid transfer workstation (Molecular Devices). The cells were incubated at 37° C. for 10 min with synthetic peptides at a concentration of 1 μM. Control incubations in the presence of 5.6 mM glucose only, 30 mM KCl, and 10 mM alanine were also carried out.

Experiment [4] relates to BRIN-BD11 cells. Put plainly: Intracellular calcium in BRIN-BD11 cells (fluorimetric). It counts as cell-based. The settings on record: peptide 1 μM, 10 min, vs 5.6 mM glucose alone. The method, then:
as §1
(Calcium flux is commonly read through the fluorescence of an indicator in the cells.)

Experiment [5] relates to NIH Swiss TO mice. Put plainly: Acute in vivo glucose tolerance study, i.p. glucose with peptide. The settings on record: peptide 75 nmol/kg bw i.p. with glucose; for plasma insulin concentration after intraperitoneal glucose load: mice. The method, then: (§2) All animal experiments were carried out in accordance with the UK Animals (Scientific Procedures) Act 1986 and EC Directive 86/609/EEC for animal experiments. For acute in vivo glucose tolerance studies, age-matched groups (n =6) of overnight fasted male NIH Swiss TO mice received an intraperitoneal injection of either glucose alone (32% w/v) or in combination with synthetic peptides (75 nmol/kg body weight). All solutions were administered in 0.9% NaCl (5 ml/kg body weight). Blood glucose concentrations were measured by Bayer Ascencia Blood glucose meter and plasma insulin concentrations were measured by radioimmunoassay as described by Flatt and Bailey (1981). For chronic in vivo studies, male NIH Swiss TO mice were fed high fat diet or standard diet from 8 weeks of age to 27 weeks of age. Peptides were administered twice daily for 28 days. No adverse effects were observed following administration of the peptide. Parameters including body weight, energy intake, blood glucose and plasma insulin levels were monitored once in three days for 28 days. Body weight and energy intake were measured by weighing mice and food weights respectively. At the end of the study, to determine glucose tolerance, glucose (18 mmol/kg bw) was injected (i.p) to overnight fasted mice and blood glucose levels were monitored at 0, 15, 30, 60 and 90 minutes. To determine insulin sensitivity, insulin (25 U/kg bw) was injected and blood glucose levels were monitored at 0, 15, 30 and 60 minutes. To determine blood glucose profile over a period of 24 h, blood glucose levels were monitored at 0 (before peptide administration), 2, 4, 8 (before peptide administration) and 24 h (before peptide administration). Lean and fat mass were determined by DXA scanning and terminal blood and tissues were collected for ex vivo studies including pancreatic islet morphology, hormone content, lipid profile and islet function.

In experiment [6] the test system is Swiss TO mice on high fat diet. Put plainly: Chronic in vivo study, twice-daily peptide for 28 days in high fat fed mice. As to conditions: for glucose tolerance: end of 28 day study, glucose 18 mmol/kg bw i.p., overnight fasted; for effect on body weight change relative to Exendin-4 / body weight change (Day 0-Day 28): twice daily; for effect on body weight change relative to Exendin-4 / body weight change (Day 0-Day 28) / plasma insulin levels during treatment: 28 days; for body weight change (Day 0-Day 28): vs lean and high fat diet saline control; for blood glucose levels during treatment: monitored once in three days for 28 days. As to the method: as §2, with “No adverse effects were observed following administration of the peptide.” left out
In vivo anti-diabetic effects of Exendin-4, Esculentin-2CHa-(GA30), [D-Arg7, D-Lys15,D-Lys23]-esculentin-2CHa-(GA30), and Lys15-octanoate-Esculentin-2CHa-(GA30) were assessed using Swiss TO mice fed high fat diet, with appropriate controls (saline treated mice on standard diet or high fat diet).

The mark [7] stands for this setting: vs high fat diet saline control.

Turning to Esculentin-2CHa, in experiment [1] (5.6 mM glucose, peptides 10^-12-3x10^-6 M, 20 min), the “insulin release from BRIN-BD11 cells” value is recorded as “dose-dependent stimulatory effects”. Further, the “insulin-release stimulatory effects in the presence of high glucose” value in experiment [2] is on record as “retained”. Moreover, in experiment [3], the membrane depolarization entry is listed as “significantly enhanced membrane depolarization”. For the same substance, the intracellular calcium entry in experiment [4] was “caused an increase in intracellular calcium”. For the same substance, the “plasma glucose after intraperitoneal glucose load” value in experiment [5] (mice with diet-induced obesity diabetes (so in the source)) is “significantly reduced plasma glucose concentration”. Besides, the “plasma insulin concentration after intraperitoneal glucose load” value (from here on “plasma insulin concentration”) in experiment [5] is “increase plasma insulin concentrations”; in experiment [5] (listed as esculentin-2CHa), “significantly increased”.

On to Esculentin-2CHa-(GA30), for which, in experiment [6], the glucose tolerance entry was “improved glucose tolerance, with lowered plasma glucose and insulin levels”; the “effect on body weight change relative to Exendin-4” value was “comparable to Exendin-4”; the “body weight change (Day 0-Day 28)” value is listed as “significant reduction in body weight”. Further, in experiment [6] (setting [7]), the “islet area, beta and alpha cell area” value was “significantly reduced islet area, beta and alpha cell area”; the “plasma insulin area under curve” value is given as “markedly lower than high fat diet saline control”; the “plasma insulin levels during treatment” value was “reduced plasma insulin levels significantly from day 12”. The “insulin-releasing potency compared to native peptide” value in experiment [1] (at lower concentrations) was “more potent than the native peptide at lower concentrations”. Moreover, in experiment [5], the “plasma insulin concentration” value is listed as “significantly increased” and the “acute in vivo effects compared to native peptide” value was “comparable to the effects of native esculentin-CHa”.

Exendin-4 [reference compound]: in experiment [6], the glucose tolerance entry is “improved glucose tolerance, with lowered plasma glucose and insulin levels”; the “body weight change (Day 0-Day 28)” value was “significant reduction in body weight”. The “islet area, beta and alpha cell area” value in experiment [6] (setting [7]) is “significantly reduced islet area, beta and alpha cell area”.

Consider Lys15-octanoate-Esculentin-2CHa-(GA30), for which, in experiment [6], the glucose tolerance result was “improved glucose tolerance, with lowered plasma glucose and insulin levels”; the “blood glucose levels during treatment” value is “reduced blood glucose levels markedly from day 6”; the “effect on body weight change relative to Exendin-4” value is reported as “comparable to Exendin-4”; the “body weight change (Day 0-Day 28)” value is given as “significant reduction in body weight”. Also, in experiment [6] (setting [7]), the LDL levels result is given as “reduced LDL levels”; the “islet area, beta and alpha cell area” value is “significantly reduced islet area, beta and alpha cell area”; the “plasma insulin area under curve” value is on record as “markedly lower than high fat diet saline control”; the “plasma insulin levels during treatment” value is “reduced plasma insulin levels significantly from day 12”.

For “[D-Arg7, D-Lys15,D-Lys23]-esculentin-2CHa-(GA30)”, in experiment [6], the glucose tolerance result was “improved glucose tolerance, with lowered plasma glucose and insulin levels”; the “blood glucose levels during treatment” value was “reduced blood glucose levels from day 21”; the “effect on body weight change relative to Exendin-4” value is given as “comparable to Exendin-4”; the “body weight change (Day 0-Day 28)” value is listed as “significant reduction in body weight”. Further, in experiment [6] (setting [7]), the “islet area, beta and alpha cell area” value is “significantly reduced islet area, beta and alpha cell area”; the “plasma insulin area under curve” value was “markedly lower than high fat diet saline control”.

“[Lys20, Lys27, Ser31, Ser37]-Esculentin-2CHa”: in experiment [5], the “plasma insulin concentration” value is on record as “significantly increased” and the “acute in vivo effects compared to native peptide” value was “comparable to the effects of native esculentin-CHa”.

Regarding [Lys20, Lys27]-Esculentin-2CHa-(GA30), in experiment [5], the “plasma insulin concentration” value is on record as “significantly increased”.
